Source: patent US7939534B2, “Certain chemical entities, compositions, and methods” (Cytokinetics, Inc., priority 2006, dated 2011)

What follows are molecules tested against T1, chicken gizzard smooth muscle myosin subfragment-1 chemically crosslinked to either cardiac or skeletal actin (Gallus gallus, UniProt P10587) (assay: Dose dependent smooth muscle myosin ATPase modulation (pyruvate kinase/horseradish peroxidase/pyruvate oxidase-coupled ATPase assay)). Conditions: read-out: IC50 Arithmetic Mean.
T1 construct: chicken gizzard smooth muscle myosin subfragment-1; from tissue; host or cells: chicken gizzard
Format: biochemical
Description: In Vitro Model of Dose Dependent Smooth Muscle Myosin Atpase Modulation
Screening assays were performed using a pyruvate kinase and lactate dehydrogenase-coupled ATPase assay containing the following reagents: Potassium PIPES (50 mM ), MgCl2 (3 mM ), KCl (100 mM ), ATP (0.15 mM ), DTT (1 mM ), BSA (0.1 mg/ml), NADH (0.5 mM ), PEP (1.5 mM ), pyruvate kinase (4 U/ml), lactate dehydrogenase (8 U/ml), and antifoam (50 ppm) (concentrations expressed are final assay concentrations). The pH was adjusted to 6.80 at 22° C. by addition of potassium hydroxide. Lead optimization assays were performed with a more sensitive pyruvate kinase/horseradish peroxidase/pyruvate oxidase-coupled ATPase assay containing the following reagents: Potassium PIPES (12 mM ), MgCl2 (2 mM ), KCl (100 mM ), ATP (0.15 mM ), BSA (0.05 mg/ml), potassium phosphate (2 mM ), amplex red (0.1 mM ), PEP (0.1 mM ), pyruvate kinase (4 U/ml), horseradish peroxidase (0.5 U/ml), pyruvate oxidase (0.5 U/ml), and antifoam (50 ppm) (concentrations expressed are final assay concentrations). The pH was adjusted to 7.00 at 22° C. by addition of potassium hydroxide.
The protein components specific to this assay are chicken gizzard smooth muscle myosin subfragment-1 that has been chemically crosslinked to either cardiac or skeletal actin using an excess of 1-Ethyl-3-[3-dimethylaminopropyl]carbodiimide hydrochloride and N-hydroxysuccinimide. The exact concentration of the crosslinked smooth muscle myosin in the assay is determined empirically, by titration to achieve a desired rate of ATP hydrolysis. The concentration varies between protein preparations due to variations in the fraction of active molecules in each preparation.
Compound dose response assays are performed by first preparing a dilution series of test compound, each with an assay mixture containing potassium PIPES, MgCl2, KCl, ATP, BSA, potassium phosphate, amplex red, PEP, crosslinked smooth muscle actomyosin (subfragment-1), antifoam, and water. The assay is started by adding an equal volume of solution containing potassium Pipes, MgCl2, KCl, BSA, potassium phosphate, pyruvate kinase, horseradish peroxidase, pyruvate oxidase, antifoam, and water. ATP hydrolysis is monitored by measuring the fluorescence of amplex red (excitation at 480 nm, emission at 615 nm). The resulting dose response curve is fit by the 4 parameter equation y=Bottom+((Top−Bottom)/(1+((IC50/X)^Hill))). The IC50 is defined as the concentration at which ATPase activity is midway between the top and bottom of the dose response curve.

Row | SMILES | IC50 [nM]
1 | CC(=O)N1CC=C(c2ccc(C(=O)NCc3cccnc3)c(NCCc3cccc(F)c3)n2)CC1 [Compound 56, (6-(1-acetyl(4-1,2,5,6-tetrahydropyridyl))-2-{[2-(3-fluorophenyl)ethyl]amino}(3-pyridyl))-N-(3-pyridylmethyl)carboxamide] | 430
2 | O=C(NCc1cccnc1)c1ccc(C2=CCNCC2)nc1NCCc1cccc(F)c1 [Compound 57, (2-{[2-(3-fluorophenyl)ethyl]amino}-6-(4-1,2,5,6-tetrahydropyridyl)(3-pyridyl))-N-(3-pyridylmethyl)carboxamide] | 10500
3 | O=C(NCc1cccnc1)c1ccc(C2CCCC2)nc1NCCc1cccc(F)c1 [Compound 59, (6-cyclopentyl-2-{[2-(3-fluorophenyl)ethyl]amino}(3-pyridyl))-N-(3-pyridylmethyl)carboxamide] | 4410
4 | O=C(NCc1cccnc1)c1ccc(C2=CCC3(CC2)OCCO3)nc1NCCc1cccc(F)c1 [Compound 60, (6-(1,4-dioxaspiro[4.5]dec-7-en-8-yl)-2-{[2-(3-fluorophenyl)ethyl]amino}(3-pyridyl))-N-(3-pyridylmethyl)carboxamide] | 1820
5 | O=C(NCc1cccnc1)c1ccc(C2=CCCC2)nc1NCCc1cccc(F)c1 [Compound 62, (6-cyclopent-1-enyl-2-{[2-(3-fluorophenyl)ethyl]amino}(3-pyridyl))-N-(3-pyridylmethyl)carboxamide] | 637
6 | C[C@H](CNC(=O)c1cc(F)c(N2CCCC2)nc1NCCc1cccc(F)c1)NC(=O)CNC(=O)OC(C)(C)C [Compound 63, N-{(1R)-2-[(5-fluoro-2-{[2-(3-fluorophenyl)ethyl]amino}-6-pyrrolidinyl(3-pyridyl))carbonylamino]-isopropyl}-2-[(tert-butoxy)carbonylamino]acetamide] | 15100
7 | O=C1CC=C(c2ccc(C(=O)NCc3cccnc3)c(NCCc3cccc(F)c3)n2)CC1 [Compound 64, (2-{[2-(3-fluorophenyl)ethyl]amino}-6-(4-oxocyclohex-1-enyl)(3-pyridyl))-N-(3-pyridylmethyl)carboxamide] | 671
8 | CC(C)(C)OC(=O)NCc1ncccc1CNC(=O)c1cc(F)c(N2CC[C@@H](F)C2)nc1NCCc1cccc(F)c1 [Compound 65, (6-((3R)-3-fluoropyrrolidinyl)-5-fluoro-2-{[2-(3-fluorophenyl)ethyl]amino}(3-pyridyl))-N-[(2-{[(tert-butoxy)carbonylamino]methyl}(3-pyridyl))methyl]carboxamide] | 8240
9 | O=C(NCc1cccnc1)c1ccc(C2=CCCCC2)nc1NCCc1cccc(F)c1 [Compound 67, (6-cyclohex-1-enyl-2-{[2-(3-fluorophenyl)ethyl]amino}(3-pyridyl))-N-(3-pyridylmethyl)carboxamide] | 117
10 | CC(C)(C)OC(=O)NCCCN1C(=O)CC[C@@H]1CNC(=O)c1cc(F)c(N2CCCC2)nc1NCCc1cccc(F)c1 [Compound 68, N-[((2R)-1-{3-[(tert-butoxy)carbonylamino]propyl}-5-oxopyrrolidin-2-yl)methyl](5-fluoro-2-{[2-(3-fluorophenyl)ethyl]amino}-6-pyrrolidinyl(3-pyridyl))carboxamide] | 3320
11 | CN(C)C(=O)N1CC=C(c2ccc(C(=O)NCc3cccnc3)c(NCCc3cccc(F)c3)n2)CC1 [Compound 69, (6-[1-(N,N-dimethylcarbamoyl)(4-1,2,5,6-tetrahydropyridyl)]-2-{[2-(3-fluorophenyl)ethyl]amino}(3-pyridyl))-N-(3-pyridylmethyl)carboxamide] | 452
12 | CN1CC=C(c2ccc(C(=O)NCc3cccnc3)c(NCCc3cccc(F)c3)n2)CC1 [Compound 71, (2-{[2-(3-fluorophenyl)ethyl]amino}-6-(1-methyl(4-1,2,5,6-tetrahydropyridyl))(3-pyridyl))-N-(3-pyridylmethyl)carboxamide] | 4360
13 | COC(=O)N1C=CC(c2ccc(C(=O)NCc3cccnc3)c(NCCc3cccc(F)c3)n2)CC1 (centres unmarked) [Compound 72, methyl 4-(6-{[2-(3-fluorophenyl)ethyl]amino}-5-[N-(3-pyridylmethyl)carbamoyl]-2-pyridyl)-1,4,5,6-tetrahydropyridinecarboxylate] | 5770
14 | O=C(NCc1cccnc1)c1ccc(C2=NCCN2)nc1NCCc1cccc(F)c1 [Compound 73, (2-{[2-(3-fluorophenyl)ethyl]amino}-6-(2-imidazolin-2-yl)(3-pyridyl))-N-(3-pyridylmethyl)carboxamide] | 56400
15 | CC(C)(C)OC(=O)NCC(=O)N1CCC[C@@H]1CNC(=O)c1cc(F)c(N2CCCC2)nc1NCCc1cccc(F)c1 [Compound 77, N-[((2R)-1-{2-[(tert-butoxy)carbonylamino]acetyl}pyrrolidin-2-yl)methyl](5-fluoro-2-{[2-(3-fluorophenyl)ethyl]amino}-6-pyrrolidinyl(3-pyridyl))carboxamide] | 13600
16 | CC(C)(C)OC(=O)N1CCC[C@@H]1CNC(=O)c1cc(F)c(N2CCCC2)nc1NCCc1cccc(F)c1 [Compound 80, tert-butyl (2R)-2-{[(5-fluoro-2-{[2-(3-fluorophenyl)ethyl]amino}-6-pyrrolidinyl(3-pyridyl))carbonylamino]methyl}pyrrolidinecarboxylate] | 6860
17 | CS(=O)(=O)N1CC=C(c2ccc(C(=O)NCc3cccnc3)c(NCCc3cccc(F)c3)n2)CC1 [Compound 83, (2-{[2-(3-fluorophenyl)ethyl]amino}-6-[1-(methylsulfonyl)(4-1,2,5,6-tetrahydropyridyl)](3-pyridyl))-N-(3-pyridylmethyl)carboxamide] | 6400
18 | CN(C)C(=O)N1CCN(c2ccc(C(=O)NCc3cccnc3)c(NCCc3cccc(F)c3)n2)CC1 [Compound 84, [4-(6-{[2-(3-fluorophenyl)ethyl]amino}-5-[N-(3-pyridylmethyl)carbamoyl](2-pyridyl))piperazinyl]-N,N-dimethylcarboxamide] | 48500

Second part, the molecule after the results:

Row | IC50 [nM] | SMILES
19 | 2150 | CC(C)(C)OC(=O)N1CC=C(c2ccc(C(=O)NCc3cccnc3)c(NCCc3cccc(F)c3)n2)CC1 [Compound 58, tert-butyl 4-(6-{[2-(3-fluorophenyl)ethyl]amino}-5-[N-(3-pyridylmethyl)carbamoyl]-2-pyridyl)-1,2,5,6-tetrahydropyridinecarboxylate]
20 | 100 | COC(=O)N1CC=C(c2ccc(C(=O)NCc3cccnc3)c(NCCc3cccc(F)c3)n2)CC1 [Compound 61, methyl 4-(6-{[2-(3-fluorophenyl)ethyl]amino}-5-[N-(3-pyridylmethyl)carbamoyl]-2-pyridyl)-1,2,5,6-tetrahydropyridinecarboxylate]
21 | 4170 | O=C(NCc1cccnc1)c1ccc(C2CCCCC2)nc1NCCc1cccc(F)c1 [Compound 66, (6-cyclohexyl-2-{[2-(3-fluorophenyl)ethyl]amino}(3-pyridyl))-N-(3-pyridylmethyl)carboxamide]
22 | 295 | O=C(NCc1cccnc1)c1cc(Br)c(N2CCCC2)nc1NCCc1cccc(F)c1 [Compound 70, (5-bromo-2-{[2-(3-fluorophenyl)ethyl]amino}-6-pyrrolidinyl(3-pyridyl))-N-(3-pyridylmethyl)carboxamide]
23 | 25.9 | NCc1ncccc1CNC(=O)c1cc(F)c(N2CCCC2)nc1NCCc1cccc(F)c1 [Compound 78, N-{[2-(aminomethyl)(3-pyridyl)]methyl}(5-fluoro-2-{[2-(3-fluorophenyl)ethyl]amino}-6-pyrrolidinyl(3-pyridyl))carboxamide]
24 | 1800 | O=C(NC[C@H]1CCCN1)c1cc(F)c(N2CCCC2)nc1NCCc1cccc(F)c1 [Compound 79, N-[((2R)pyrrolidin-2-yl)methyl](5-fluoro-2-{[2-(3-fluorophenyl)ethyl]amino}-6-pyrrolidinyl(3-pyridyl))carboxamide]
25 | 1320 | NCc1ncccc1CNC(=O)c1cc(F)c(C2CC2)nc1NCCc1cccc(F)c1 [Compound 81, N-{[2-(aminomethyl)(3-pyridyl)]methyl}(6-cyclopropyl-5-fluoro-2-{[2-(3-fluorophenyl)ethyl]amino}(3-pyridyl))carboxamide]
26 | 197 | C[C@H](CNC(=O)c1cc(F)c(N2CCCC2)nc1NCCc1cccc(F)c1)NC(=O)CN [Compound 82, N-{(1R)-2-[(5-fluoro-2-{[2-(3-fluorophenyl)ethyl]amino}-6-pyrrolidinyl(3-pyridyl))carbonylamino]-isopropyl}-2-aminoacetamide]
